Data reported in patent US11660293B2, “Substituted 2-azabicyclo[3.1.1]heptane and 2-azabicyclo[3.2.1]octane derivatives as orexin receptor antagonists” (Chronos Therapeutics Limited, priority 2017, dated 2023).

Assays:
[1] = biological target: human Orexin type 2 receptors (Homo sapiens (Human), UniProt O43614); assay: Scintillation Proximity Assay (SPA) binding assay, [3H]EMPA displacement, HEK-hOX2 membranes; conditions: Table 2, [3H]EMPA 2 nM
[2] = biological target: human Orexin type 1 receptors (Homo sapiens (Human), UniProt O43613); assay: Scintillation Proximity Assay (SPA) binding assay, [3H]SB-674042 displacement, CHO-hOX1 membranes; conditions: Table 2, [3H]SB-674042 2 nM
Sequence of human Orexin type 1 receptors (O43613 whole entry): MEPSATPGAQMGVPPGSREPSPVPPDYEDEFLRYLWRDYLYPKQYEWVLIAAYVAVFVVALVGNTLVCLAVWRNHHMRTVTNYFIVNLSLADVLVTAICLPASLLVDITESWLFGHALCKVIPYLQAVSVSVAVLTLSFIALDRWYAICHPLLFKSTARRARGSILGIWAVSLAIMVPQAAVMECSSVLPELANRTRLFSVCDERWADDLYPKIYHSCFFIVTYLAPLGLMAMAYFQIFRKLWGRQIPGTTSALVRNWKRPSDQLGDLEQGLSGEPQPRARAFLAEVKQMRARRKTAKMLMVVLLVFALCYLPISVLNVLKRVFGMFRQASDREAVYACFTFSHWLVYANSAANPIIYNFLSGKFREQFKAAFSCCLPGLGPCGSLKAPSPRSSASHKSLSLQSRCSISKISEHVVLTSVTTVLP

Sequence of human Orexin type 2 receptors (O43614 whole entry): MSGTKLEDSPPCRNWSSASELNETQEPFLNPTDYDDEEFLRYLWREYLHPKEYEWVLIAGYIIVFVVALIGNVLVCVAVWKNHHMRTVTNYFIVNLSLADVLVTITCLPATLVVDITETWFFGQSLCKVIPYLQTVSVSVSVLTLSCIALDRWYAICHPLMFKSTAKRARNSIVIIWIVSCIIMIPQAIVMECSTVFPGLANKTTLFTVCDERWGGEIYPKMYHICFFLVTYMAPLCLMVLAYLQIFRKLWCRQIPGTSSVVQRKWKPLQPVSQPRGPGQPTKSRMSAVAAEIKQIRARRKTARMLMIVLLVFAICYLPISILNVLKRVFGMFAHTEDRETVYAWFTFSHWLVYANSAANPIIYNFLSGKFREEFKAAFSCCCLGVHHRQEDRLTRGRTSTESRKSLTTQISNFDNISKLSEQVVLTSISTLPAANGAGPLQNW

Cc1nc(C(=O)N2C3CC(C3)[C@@H](C)C2CNc2nc3ccc(F)cc3s2)c(-c2ncccn2)s1 (single isomer, unassigned) [Example 164, 6-fluoro-N-({(3R,4S) or (3S,4R)4-methyl-2-[2-methyl-5-(pyrimidin-2-yl)-1,3-thiazole-4-carbonyl]-2-azabicyclo[3.1.1]heptan-3-yl}methyl)-1,3-benzothiazol-2-amine] was tested, and the “OX2 pKi (SPA binding)” value [1] was 5.68 and the “OX1 pKi (SPA binding)” value [2] was 8.93.

In the case of Cc1ccc(-n2nccn2)c(C(=O)N2C3CC(C3)[C@@H](C)C2CNc2cnc(C(F)(F)F)cn2)n1 (single isomer, unassigned) [Example 166, N-{[(3S,4R) or (3R,4S)-4-methyl-2-[6-methyl-3-(2H-1,2,3-triazol-2-yl)pyridine-2-carbonyl]-2-azabicyclo[3.1.1]heptan-3-yl]methyl}-5-(trifluoromethyl)pyrazin-2-amine], the “OX2 pKi (SPA binding)” value [1] is reported as 4.29 and the “OX1 pKi (SPA binding)” value [2] is reported as 6.99.

C[C@@H]1C2CC(C2)N(C(=O)c2cc(F)ccc2-n2nccn2)C1CNc1nc2ccc(F)cc2s1 (single isomer, unassigned) [Example 170, 6-fluoro-N-({(3R,4S) or (3S,4R)2-[5-fluoro-2-(2H-1,2,3-triazol-2-yl)benzoyl]-4-methyl-2-azabicyclo[3.1.1]heptan-3-yl}methyl)-1,3-benzothiazol-2-amine] was tested, and the “OX2 pKi (SPA binding)” value [1] was 5.99 and the “OX1 pKi (SPA binding)” value [2] was 8.86.

In the case of C[C@@H]1C2CC(C2)N(C(=O)c2cc(Cl)ccc2-n2nccn2)C1CNc1nc2ccc(F)cc2s1 (single isomer, unassigned) [Example 173, N-({(3R,4S) or (3S,4R)2-[5-chloro-2-(2H-1,2,3-triazol-2-yl)benzoyl]-4-methyl-2-azabicyclo[3.1.1]heptan-3-yl}methyl)-6-fluoro-1,3-benzothiazol-2-amine], the “OX2 pKi (SPA binding)” value [1] is reported as 6.53 and the “OX1 pKi (SPA binding)” value [2] is reported as 9.36.

In the case of C[C@@H]1C2CC(C2)N(C(=O)c2cc(C#N)ccc2-n2nccn2)C1CNc1nc2ccc(F)cc2s1 (single isomer, unassigned) [Example 177, 3-[(3R,4S) or (3S,4R)-3-{[(6-fluoro-1,3-benzothiazol-2-yl)amino]methyl}-4-methyl-2-azabicyclo[3.1.1]heptane-2-carbonyl]-4-(2H-1,2,3-triazol-2-yl)benzonitrile], the “OX2 pKi (SPA binding)” value [1] is reported as 6.46 and the “OX1 pKi (SPA binding)” value [2] is reported as 8.95.

In the case of Cc1ccc(-n2nccn2)c(C(=O)N2C3CC(C3)[C@@H](C)C2CNc2nc3ccccc3s2)n1 (single isomer, unassigned) [Example 180, N-{[(3R,4S) or (3S,4R)-4-methyl-2-[6-methyl-3-(2H-1,2,3-triazol-2-yl)pyridine-2-carbonyl]-2-azabicyclo[3.1.1]heptan-3-yl]methyl}-1,3-benzothiazol-2-amine], the “OX2 pKi (SPA binding)” value [1] is reported as 5.58 and the “OX1 pKi (SPA binding)” value [2] is reported as 8.78.

With C[C@@H]1C2CC(C2)N(C(=O)c2cc(F)ccc2-n2nccn2)C1CNc1cnc2ccccc2n1 (single isomer, unassigned) [Example 189, N-({(3R,4S) or (3S,4R)2-[5-fluoro-2-(2H-1,2,3-triazol-2-yl)benozyl]-4-methyl-2-azabicyclo[3.1.1]heptan-3-yl}methyl)quinoxalin-2-amine] the “OX2 pKi (SPA binding)” value [1] was 5.92 and the “OX1 pKi (SPA binding)” value [2] was 8.51.

C[C@@H]1C2CC(C2)N(C(=O)c2cc(F)ccc2-n2nccn2)C1CNc1ccc(C(F)(F)F)cn1 (single isomer, unassigned) [Example 192, N-({(3R,4S) or (3S,4R)2-[5-fluoro-2-(2H-1,2,3-triazol-2-yl)benzoyl]-4-methyl-2-azabicyclo[3.1.1]heptan-3-yl}methyl)-5-(trifluoromethyl)pyridin-2-amine] was tested, and the “OX2 pKi (SPA binding)” value [1] was 5.19 and the “OX1 pKi (SPA binding)” value [2] was 8.13.

For Cc1ccc(-n2nccn2)c(C(=O)N2C3CC(C3)[C@@H](C)C2CNc2ncc(C(F)(F)F)cn2)n1 (single isomer, unassigned) [Example 194, N-{[(3S,4R) or (3R,4S)-4-methyl-2-[6-methyl-3-(2H-1,2,3-triazol-2-yl)pyridine-2-carbonyl]-2-azabicyclo[3.1.1]heptan-3-yl]methyl}-5-(trifluoromethyl)pyrimidin-2-amine], the “OX2 pKi (SPA binding)” value [1] was 4.66 and the “OX1 pKi (SPA binding)” value [2] was 7.51.

With Cc1ccc(-n2nccn2)c(C(=O)N2C3CC(C3)[C@@H](C)C2CNc2cnc3cc(F)ccc3n2)n1 (single isomer, unassigned) [Example 200, 6-fluoro-N-{[(3R,4S) or (3S,4R)-4-methyl-2-[6-methyl-3-(2H-1,2,3-triazol-2-yl)pyridine-2-carbonyl]-2-azabicyclo[3.1.1]heptan-3-yl]methyl}quinoxalin-2-amine] the “OX2 pKi (SPA binding)” value [1] was 6.37 and the “OX1 pKi (SPA binding)” value [2] was 8.24.

With C[C@@H]1C2CC(C2)N(C(=O)c2cc(Cl)ccc2-n2nccn2)C1CNc1cnc2cc(F)ccc2n1 (single isomer, unassigned) [Example 209, N-{[(3R,4R) or (3S,4R)-2-[5-chloro-2-(2H-1,2,3-triazol-2-yl)benzoyl]-4-methyl-2-azabicyclo[3.1.1]heptan-3-yl]methyl}-6-fluoroquinoxalin-2-amine] the “OX2 pKi (SPA binding)” value [1] was 6.8 and the “OX1 pKi (SPA binding)” value [2] was 8.74.

For C[C@@H]1C2CC(C2)N(C(=O)c2nn(C)cc2-c2ccccc2)C1CNc1ccc(C(F)(F)F)cn1 (single isomer, unassigned) [Example 211, N-{[(3S,4R) or (3R,4R)-4-methyl-2-(1-methyl-4-phenyl-1H-pyrazole-3-carbonyl)-2-azabicyclo[3.1.1]heptan-3-yl]methyl}-5-(trifluoromethyl)pyridin-2-amine], the “OX2 pKi (SPA binding)” value [1] was 6.25 and the “OX1 pKi (SPA binding)” value [2] was 8.91.

For Cc1ccc(-n2nccn2)c(C(=O)N2C3CC(C3)[C@@H](C)C2CNc2nc3ccc(F)cc3o2)n1 (single isomer, unassigned) [Example 219, 6-fluoro-N-{[(3S,4R) or (3R,4S)-4-methyl-2-[6-methyl-3-(2H-1,2,3-triazol-2-yl)pyridine-2-carbonyl]-2-azabicyclo[3.1.1]heptan-3-yl]methyl}-1,3-benzoxazol-2-amine], the “OX2 pKi (SPA binding)” value [1] was 5.79 and the “OX1 pKi (SPA binding)” value [2] was 8.71.

With Cc1ccc(-n2nccn2)c(C(=O)N2C3CC(C3)[C@@H](C)C2CNc2nc3ccccc3o2)n1 (single isomer, unassigned) [Example 226, N-{[(3S,4R) or (3R,3S)-4-methyl-2-[6-methyl-3-(2H-1,2,3-triazol-2-yl)pyridine-2-carbonyl]-2-azabicyclo[3.1.1]heptan-3-yl]methyl}-1,3-benzoxazol-2-amine] the “OX2 pKi (SPA binding)” value [1] was 5.39 and the “OX1 pKi (SPA binding)” value [2] was 8.46.

With Cc1ccc(-n2nccn2)c(C(=O)N2C3CC(C3)[C@@H](C)C2CNc2nc3ccccc3o2)n1 (single isomer, unassigned) [Example 227, N-{[(3R,4S) or (3S,4R)-4-methyl-2-[6-methyl-3-(2H-1,2,3-triazol-2-yl)pyridine-2-carbonyl]-2-azabicyclo[3.1.1]heptan-3-yl]methyl}-1,3-benzoxazol-2-amine] the “OX2 pKi (SPA binding)” value [1] was 4.9 and the “OX1 pKi (SPA binding)” value [2] was 7.11.

With C[C@@H]1C2CC(C2)N(C(=O)c2cc(Cl)ccc2-n2nccn2)C1CNc1nc2cccnc2s1 (single isomer, unassigned) [Example 236, N-{[(3R,4S) or (3S,4R)-2-[5-chloro-2-(2H-1,2,3-triazol-2-yl)benzoyl]-4-methyl-2-azabicyclo[3.1.1]heptan-3-yl]methyl}-[1,3]thiazolo[5,4-b]pyridin-2-amine] the “OX2 pKi (SPA binding)” value [1] was 5.7 and the “OX1 pKi (SPA binding)” value [2] was 8.99.

C[C@@H]1C2CC(C2)N(C(=O)c2cc(Cl)ccc2-n2nccn2)C1CNc1ncc(C(F)(F)F)cn1 (single isomer, unassigned) [Example 241, N-{[(3R,4S) or (3S,4R)-2-[5-chloro-2-(2H-1,2,3-triazol-2-yl)benzoyl]-4-methyl-2-azabicyclo[3.1.1]heptan-3-yl]methyl}-5-(trifluoromethyl)pyrimidin-2-amine] was tested, and the “OX2 pKi (SPA binding)” value [1] was 5.59 and the “OX1 pKi (SPA binding)” value [2] was 8.27.

With C[C@@H]1C2CC(C2)N(C(=O)c2cc(Cl)ccc2-n2nccn2)C1CNc1nc2cccnc2o1 (single isomer, unassigned) [Example 244, N-{[(3R,4S) or (3S,4R)-2-[5-chloro-2-(2H-1,2,3-triazol-2-yl)benzoyl]-4-methyl-2-azabicyclo[3.1.1]heptan-3-yl]methyl}-[1,3]oxazolo[5,4-b]pyridin-2-amine] the “OX2 pKi (SPA binding)” value [1] was 5.18 and the “OX1 pKi (SPA binding)” value [2] was 8.25.

In the case of Cc1ccc(-c2ncccn2)c(C(=O)N2C3CC(C3)[C@@H](C)C2CNc2cnc(C(F)(F)F)cn2)n1 (single isomer, unassigned) [Example 249, N-{[(3S,4R) or (3R,4S)-4-methyl-2-[6-methyl-3-(pyrimidin-2-yl)pyridine-2-carbonyl]-2-azabicyclo[3.1.1]heptan-3-yl]methyl}-5-(trifluoromethyl)pyrazin-2-amine], the Ki ([1]; read-out: OX2 pKi (SPA binding) (converted)) is reported as greater than 31.6 µM and the “OX1 pKi (SPA binding)” value [2] is reported as 5.12.

In the case of Cc1ccc(-c2ncccn2)c(C(=O)N2C3CC(C3)[C@@H](C)C2CNc2cnc(C(F)(F)F)cn2)n1 (single isomer, unassigned) [Example 250, N-{[(3R,4S) or (3S,4R)-4-methyl-2-[6-methyl-3-(pyrimidin-2-yl)pyridine-2-carbonyl]-2-azabicyclo[3.1.1]heptan-3-yl]methyl}-5-(trifluoromethyl)pyrazin-2-amine], the “OX2 pKi (SPA binding)” value [1] is reported as 4.85 and the “OX1 pKi (SPA binding)” value [2] is reported as 7.9.

For Cc1ccc(-n2nccn2)c(C(=O)N2C3CC(C3)[C@@H](C)C2CNc2cnc(C(F)(F)F)cn2)c1 (single isomer, unassigned) [Example 256, N-{[(3R,4S) or (3S,4R)-4-methyl-2-[5-methyl-2-(2H-1,2,3-triazol-2-yl)benzoyl]-2-azabicyclo[3.1.1]heptan-3-yl]methyl}-5-(trifluoromethyl)pyrazin-2-amine], the “OX2 pKi (SPA binding)” value [1] was 5.18 and the “OX1 pKi (SPA binding)” value [2] was 8.75.
